Key:
Type in all cases: cell-based
[1] = tested on: MIX—PP +BM (P. aeruginosa with microbial modulators); experiment: Growth of mix PP + MM (original sputum) on antibiotic-supplemented Columbia agar; settings: Columbia agar with erythrocytes 5%, 24 h at 37 C
[2] = tested on: bacteria of sputum from patients with lung diseases; experiment: Sputum plated on 24-well plates with antibiotics at Cmax or C0-4 h, Algorithm #1 or #2; further: key: '+'—presence of bacterial growth, antibiotic ineffective; '−'—absence of bacterial growth, antibiotic effective
Protocol: Pathological material (sputum) from patients with lung diseases was plated into wells of 24-well plates filled with a nutrient medium supplemented with erythrocytes 5%, to which antibiotics were added taken at different concentrations.
Group #1—antibiotics were taken at concentrations close to a maximum (peak) concentration achievable at the site of infection Cmax
Algorithm #1. Lab technician, analyzed the appearance of bacterial growth by comparing the signs of bacterial growth in each well supplemented with antibiotic(s) at certain timepoint, with the signs of bacterial growth in the same well at previous time point(s).
Algorithm #2. Lab technician analyzed the appearance of bacterial growth by comparing the signs of bacterial growth in each well supplemented with antibiotic(s) with bacterial growth in antibiotic-free control

E. coli = experiment: Growth of microbial modulator alone on antibiotic-supplemented Columbia agar; settings: Bacterial set #4; Amikacin (1 μg/mL); Columbia agar with erythrocytes 5%, 24 h at 37 C
[3] = tested on: bacteria of sputum from patients with lung diseases; experiment: Standard antibiotic susceptibility study using the microbroth dilution method (Algorithm #3); further: key: '+'—presence of bacterial growth, antibiotic ineffective; '−'—absence of bacterial growth, antibiotic effective
Excerpt: Algorithm #3—Standard antibiotic susceptibility study using the microbroth dilution method.

S. haemolyticus = experiment: Growth of microbial modulator alone on antibiotic-supplemented Columbia agar; settings: Bacterial set #4; Amikacin (1 μg/mL); Columbia agar with erythrocytes 5%, 24 h at 37 C
P. aeruginosa = experiment: Growth of primary pathogen alone on antibiotic-supplemented Columbia agar; settings: Columbia agar with erythrocytes 5%, 24 h at 37 C
Protocol: Four sputum samples from patients with lung infections were used. Pure bacterial culture of each microorganisms was obtained by routine microbiological methods.
In this case this antibiotic at MIC of 16 ug/mL was used in the following studies. PP alone, or Microbial Modulators (MM) alone or the original sputum were plated on the wells of 24 well plate filled with nutrient Columbia agar supplemented with erythrocytes 5% and supplemented with antibiotics taken as MIC determined against PP, but not more than 16 μg/mL and incubated 24 h at 37 C.

S. aureus = experiment: Growth of microbial modulator alone on antibiotic-supplemented Columbia agar; settings: Bacterial set #3; Ceftazidime (2 μg/mL); Columbia agar with erythrocytes 5%, 24 h at 37 C
B. thailandensis = settings: Bacterial set #3; Ceftazidime (2 μg/mL); Columbia agar with erythrocytes 5%, 24 h at 37 C
[4] = Bacterial set #4, Amikacin (1 μg/mL)
[5] = Algorithm #1, antibiotic at C0-4 h
[6] = Algorithm #1, antibiotic at Cmax
[7] = Algorithm #2, antibiotic at C0-4 h
[8] = Algorithm #2, antibiotic at Cmax
[9] = Bacterial set #3, Ceftazidime (2 μg/mL)

Row | SMILES | Presence of PP in Mix (PP + MM) [1, 4] | ATB efficacy [2, 5] | ATB efficacy [2, 6] | ATB efficacy [2, 7] | ATB efficacy [2, 8] | microbial growth, EC (BM alone) (E. coli) | ATB efficacy [3] | microbial growth, SH (BM alone) (S. haemolyticus) | microbial growth, PA (PP alone) (P. aeruginosa; [4]) | Presence of PP in Mix (PP + MM) [1, 9] | microbial growth, SA (BM alone) (S. aureus) | microbial growth, BT (BM alone) (B. thailandensis) | microbial growth, PA (PP alone) (P. aeruginosa; [9])
1 | NCC[C@H](O)C(=O)N[C@@H]1C[C@H](N)[C@@H](O[C@H]2O[C@H](CN)[C@@H](O)[C@H](O)[C@H]2O)[C@H](O)[C@H]1O[C@H]1O[C@H](CO)[C@@H](O)[C@H](N)[C@H]1O [Amikacin] | − | − | − | − | − | − | − | + | + |  |  |  | 
2 | CC(C)(O/N=C(\C(=O)N[C@@H]1C(=O)N2C(C(=O)[O-])=C(C[n+]3ccccc3)CS[C@H]12)c1csc(N)n1)C(=O)O [Ceftazidime] |  | + | + | + | + |  | + |  |  | − | + | + | +
